This passage reports minimal effective concentration and EC50 results from US20240262803A1, “COMPOUNDS, COMPOSITIONS AND METHODS OF TREATING DISORDERS” (Chungdu Anticancer Bioscience Ltd, priority 2021, published 2024).

The structures appear in SMILES notation. pEC50: −log10 of the molar value. Read-outs that look alike come from different tables or passages of the source.

Type in all cases: cell-based
The test system of assay [1] is liver cancer cell line T2 HCC. The assay is described as follows: Minimal effective concentration that elicits polyploidy, T2 HCC. Conditions: Mus musculus, read-out: MECP: Minimal effective concentration that elicits polyploidy.
Assay [2] deals with lung cancer cell line NCI-H23. The assay is described as follows: Minimal effective concentration that elicits polyploidy, NCI-H23. Conditions: Homo sapiens, read-out: MECP: Minimal effective concentration that elicits polyploidy.
The subject of assay [3] is breast cancer cell line MDA-MB-231. The assay can be described thus: MTT assay of cellular proliferation, MDA-MB-231. Conditions: Homo sapiens, read-out: EC50: Concentration that inhibits 50% of proliferation. The method, boiled down:
(§1)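 EC50 values come from optical density at 570 nm of solubilized MTT formazan, added for 3˜4 h after compound exposure. Cells in DMEM with 5% FBS were treated at 1 nM to 10 μM once 20˜30% confluent.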
(In general: Tetrazolium assays rely on reduction of a dye to a coloured formazan, in cell work by metabolically active cells.)

Assay [4] has as its system RPEMYC^H2B-GFP cells. The assay is described as follows: Mechanism-informed phenotypic screening assay (mitotic arrest, polyploidy; GE IN-Cell Analyzer 2000). Conditions: 20 nM to 20 μM, 24, 48 or 72 hours, read-out: Min. Effective conc. for polyploidy (≥5%). The method, boiled down:
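RPEMYC^H2B-GFP cells expressing Histone 2B-EGFP were treated with compounds at 20 nM to 20 μM. Mitotic arrest and DNA content were imaged at 24, 48 or 72 h. Minimal effective concentrations eliciting polyploidy are given as letter bins.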

Assay [5] deals with gastric cancer cell line NCI-N87. The assay is described as follows: Minimal effective concentration that elicits polyploidy, NCI-N87. Conditions: Homo sapiens, read-out: MECP: Minimal effective concentration that elicits polyploidy.
Assay [6] has the same test system. The assay is described as follows: MTT assay of cellular proliferation, NCI-N87. Conditions: Homo sapiens, read-out: EC50: Concentration that inhibits 50% of proliferation. The method, boiled down: as §1
For assay [7], the system named is colon cancer cell line SW460. The assay is described as follows: MTT assay of cellular proliferation, SW460. Conditions: Homo sapiens, SW480; read-out: EC50: Concentration that inhibits 50% of proliferation. The procedure, abridged:
as §1

In assay [8] the test system is cervical cancer cell line Hela. The assay is described as follows: Minimal effective concentration that elicits polyploidy, Hela. Conditions: Homo sapiens, read-out: MECP: Minimal effective concentration that elicits polyploidy.
The subject of assay [9] is colon cancer cell line HCT116. The assay is described as follows: MTT assay of cellular proliferation, HCT116. Conditions: Homo sapiens, HCT-116, read-out: EC50: Concentration that inhibits 50% of proliferation. The method, boiled down: as §1
The subject of assay [10] is liver cancer cell line T2 HCC. The assay is described as follows: MTT assay of cellular proliferation, T2 HCC. Conditions: Mus musculus, read-out: EC50: Concentration that inhibits 50% of proliferation. The procedure, abridged:
as §1

In assay [11] the test system is lung cancer cell line A549. The assay is described as follows: Minimal effective concentration that elicits polyploidy, A549. Conditions: Homo sapiens, read-out: MECP: Minimal effective concentration that elicits polyploidy.
Assay [12] has as its system colon cancer cell line HCT116. The assay is described as follows: Minimal effective concentration that elicits polyploidy, HCT116. Conditions: Homo sapiens, HCT-116, read-out: MECP: Minimal effective concentration that elicits polyploidy.
Assay [13] concerns cervical cancer cell line Hela. The assay is described as follows: MTT assay of cellular proliferation, Hela. Conditions: Homo sapiens, read-out: EC50: Concentration that inhibits 50% of proliferation. The procedure, abridged:
as §1

The test system of assay [14] is lung cancer cell line NCI-H23. The assay can be described thus: MTT assay of cellular proliferation, NCI-H23. Conditions: Homo sapiens, read-out: EC50: Concentration that inhibits 50% of proliferation. The method, boiled down: as §1
A further assay has as its system SW480. The assay can be described thus: Minimal effective concentration that elicits polyploidy, SW480. Conditions: Homo sapiens, read-out: MECP: Minimal effective concentration that elicits polyploidy.
For assay [15], the system named is lung cancer cell line A549. The assay is described as follows: MTT assay of cellular proliferation, A549. Conditions: Homo sapiens, read-out: EC50: Concentration that inhibits 50% of proliferation. The method, boiled down: as §1
The test system of assay [16] is breast cancer cell line MDA-MB-231. The assay can be described thus: Minimal effective concentration that elicits polyploidy, MDA-MB-231. Conditions: Homo sapiens, read-out: MECP: Minimal effective concentration that elicits polyploidy.
The test system of assay [17] is RPEMYC^H2B-GFP cells. The assay can be described thus: Mechanism-informed phenotypic screening assay (mitotic arrest, polyploidy; GE IN-Cell Analyzer 2000). Conditions: 20 nM to 20 μM, 24, 48 or 72 hours, read-out: Mitotic Arrest (≥5%).

As for `COc1cc(OC)cc(Oc2nccnc2-c2ccnc(OC)c2)c1` [Compound 35, 2-(3,5-dimethoxyphenoxy)-3-(2-methoxypyridin-4-yl)pyrazine], the minimal effective concentration was 0.001 to 1 µM in assay [1]; 0.001 to 1 µM in assay [2]; 1 µM in the assay with RPEMYC^H2B-GFP cells [4]; 0.001 to 1 µM in assay [5]; 0.001 to 1 µM in [8]; 0.001 to 1 µM in [11]. Besides, the minimal effective concentration is 0.001 to 1 µM in assay [12], 0.001 to 1 µM in the assay on SW480, 0.001 to 1 µM in [16] and 1 µM in the assay on RPEMYC^H2B-GFP cells [17]. The pEC50 in [3], in assay [6], in assay [7], in assay [9], in assay [10] and in assay [13] was 6.00 to 9.00 in each case. For the same molecule, the pEC50 in [14] and in assay [15] was 6.00 to 9.00 each time.
For `CNC(=O)c1cc(OC)cc(Oc2ncccc2-c2ccncc2)c1` [Compound 4, 3-([3,4′-bipyridin]-2-yloxy)-5-methoxy-N-methylbenzamide], the minimal effective concentration in assay [1] was 0.001 to 1 µM; in assay [2], 0.001 to 1 µM; in the assay with RPEMYC^H2B-GFP cells [4] it was 1 µM; in [5], 0.001 to 1 µM; in assay [8], 0.001 to 1 µM; in assay [11], 0.001 to 1 µM. The minimal effective concentration was 0.001 to 1 µM in [12], 0.001 to 1 µM with SW480, 0.001 to 1 µM in assay [16] and 1 µM with RPEMYC^H2B-GFP cells [17]. For the same molecule, the pEC50 is 6.00 to 9.00 in assay [3]; 5.00 to 6.00 in assay [6]; 6.00 to 9.00 in assay [7]; 6.00 to 9.00 in assay [9]; 6.00 to 9.00 in assay [10]; 6.00 to 9.00 in assay [13]. Further, the pEC50 in [14] and in assay [15] was 6.00 to 9.00 throughout.
For `CCOc1cc(Oc2ncccc2-c2ccnc(OC)c2)cc(C(=O)NC)c1` [Compound 28, 3-ethoxy-5-((2′-methoxy-[3,4′-bipyridin]-2-yl)oxy)-N-methylbenzamide], the minimal effective concentration in assay [1] is 0.001 to 1 µM; in assay [2], 0.001 to 1 µM; with RPEMYC^H2B-GFP cells [4], 1 µM; in assay [5], 0.001 to 1 µM; in assay [8], 0.001 to 1 µM; in [11], 0.001 to 1 µM. Further, the minimal effective concentration in [12] was 0.001 to 1 µM; in the assay on SW480 it was 0.001 to 1 µM; in [16] it was 0.001 to 1 µM; with RPEMYC^H2B-GFP cells [17], 1 µM. Also, the pEC50 in assay [3], in assay [6], in [7], in assay [9], in assay [10] and in assay [13] was 6.00 to 9.00 throughout. Moreover, the pEC50 in [14] and in assay [15] was 6.00 to 9.00 in each case.
In the case of `COc1cc(NC(C)=O)cc(Oc2ncccc2-c2ccncc2)c1` [Compound 13, N-(3-([3,4′-bipyridin]-2-yloxy)-5-methoxyphenyl)acetamide], the minimal effective concentration was 0.001 to 1 µM in assay [1]; 0.001 to 1 µM in assay [2]; 1 µM in the assay with RPEMYC^H2B-GFP cells [4]; 0.001 to 1 µM in assay [5]; 0.001 to 1 µM in assay [8]; 0.001 to 1 µM in assay [11]. Also, the minimal effective concentration in [12] was 0.001 to 1 µM; in the assay with SW480, 0.001 to 1 µM; in assay [16], 0.001 to 1 µM; in the assay on RPEMYC^H2B-GFP cells [17], 1 µM. In addition, the pEC50 in assay [3], in assay [6], in assay [7], in assay [9], in assay [10] and in assay [13] was 6.00 to 9.00 throughout. Further, the pEC50 in assay [14] and in assay [15] was 6.00 to 9.00 throughout.
As to `CNC(=O)c1cc(OC)cc(Oc2ncccc2-c2ccnc(C)c2)c1` [Compound 36, 3-methoxy-N-methyl-5-((2′-methyl-[3,4′-bipyridin]-2-yl)oxy)benzamide], the minimal effective concentration in assay [1] was 0.001 to 1 µM; in [2] it was 0.001 to 1 µM; with RPEMYC^H2B-GFP cells [4], 1 µM; in assay [5] it was 0.001 to 1 µM; in assay [8] it was 0.001 to 1 µM; in assay [11], 0.001 to 1 µM. For the same molecule, the minimal effective concentration in assay [12] was 0.001 to 1 µM; with SW480 it was 0.001 to 1 µM; in assay [16], 0.001 to 1 µM; in the assay with RPEMYC^H2B-GFP cells [17], 1 µM. For the same molecule, the pEC50 in assay [3], in assay [6], in assay [7], in assay [9], in assay [10] and in assay [13] was 6.00 to 9.00 throughout. Moreover, the pEC50 in assay [14] and in assay [15] was 6.00 to 9.00 throughout.
With `CNC(=O)c1cc(OC)cc(Oc2ncccc2-c2ccnc(OC)c2)c1` [Compound 27, 3-methoxy-5-((2′-methoxy-[3,4′-bipyridin]-2-yl)oxy)-N-methylbenzamide], the minimal effective concentration in assay [1] is 0.001 to 1 µM; in assay [2] it was 0.001 to 1 µM; with RPEMYC^H2B-GFP cells [4], 1 µM; in assay [5], 0.001 to 1 µM; in assay [8] it was 0.001 to 1 µM; in [11] it was 0.001 to 1 µM. The minimal effective concentration is 0.001 to 1 µM in assay [12], 0.001 to 1 µM in the assay with SW480, 0.001 to 1 µM in assay [16] and 1 µM in the assay with RPEMYC^H2B-GFP cells [17]. Moreover, the pEC50 in assay [3], in [6], in assay [7], in assay [9], in assay [10] and in assay [13] was 6.00 to 9.00 each time. The pEC50 in assay [14] and in assay [15] was 6.00 to 9.00 in each case.
Consider `COc1cc(NC(C)=O)cc(Oc2ncccc2-c2ccnc(C)c2)c1` [Compound 43, N-(3-methoxy-5-((2′-methyl-[3,4′-bipyridin]-2-yl)oxy)phenyl)acetamide], for which the minimal effective concentration is 0.001 to 1 µM in assay [1]; 0.001 to 1 µM in assay [2]; 1 µM in the assay on RPEMYC^H2B-GFP cells [4]; 0.001 to 1 µM in assay [5]; 0.001 to 1 µM in [8]; 0.001 to 1 µM in assay [11]. The minimal effective concentration in [12] was 0.001 to 1 µM; in the assay with SW480, 0.001 to 1 µM; in [16] it was 0.001 to 1 µM; in the assay with RPEMYC^H2B-GFP cells [17] it was 1 µM. Further, the pEC50 in assay [3], in assay [6], in assay [7], in [9], in assay [10] and in [13] was 6.00 to 9.00 throughout. The pEC50 in [14] and in assay [15] was 6.00 to 9.00 each time.
For the molecule `CNC(=O)c1cc(Oc2ncccc2-c2ccnc(C)c2)cc(C(F)(F)F)c1` [Compound 37, N-methyl-3-((2′-methyl-[3,4′-bipyridin]-2-yl)oxy)-5-(trifluoromethyl)benzamide], the minimal effective concentration was 0.001 to 1 µM in [1]; 0.001 to 1 µM in [2]; 1 µM with RPEMYC^H2B-GFP cells [4]; 0.001 to 1 µM in assay [5]; 0.001 to 1 µM in assay [8]; 0.001 to 1 µM in assay [11]. Also, the minimal effective concentration in assay [12] was 0.001 to 1 µM; in the assay with SW480, 0.001 to 1 µM; in assay [16] it was 0.001 to 1 µM; in the assay with RPEMYC^H2B-GFP cells [17], 1 µM. Also, the pEC50 in [3], in [6], in [7], in [9], in assay [10] and in assay [13] was 6.00 to 9.00 in each case. In addition, the pEC50 in [14] and in assay [15] was 6.00 to 9.00 each time.
